Test in all cases: DTP human tumour cell line panel, 48 h
Assay [1] has as its system 786-0 renal.
Assay [2] relates to ACHN renal.
Assay [3] concerns MOLT-4 leukemia.
Assay [4] deals with NCI-H226 lung.
Assay [5] has as its system NCI/ADR-RES ovarian.
Assay [6] concerns OVCAR-8 ovarian.
Assay [7] deals with PC-3 prostate.
Assay [8] relates to SK-MEL-28 melanoma.
Assay [9] concerns SK-MEL-5 melanoma.
Assay [10] concerns SW-620 colon.
Assay [11] deals with UO-31 renal.

Our source for the TGI and GI50 values is PubChem BioAssay (NCI).

Values joined by “and” are separate entries in the source; they are usually repeats but may differ in a detail not shown here. Equal values may be shown once.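 Results reflect a 48-hour exposure of cells in 96-well plates to compound at five concentrations. GI50 is the concentration that inhibits growth by half. TGI: concentration producing complete growth inhibition.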 Where a SMILES comes first, the peptide text is derived from it. [ ]: non-standard residue; d: D form. The star is where a group is joined. ξ: configuration not given here. ξF = NC(Cc1ccccc1)C(=O)O; Cbz = O=C(OCc1ccccc1)*; Aib = CC(C)(N)C(=O)O Some results are limits rather than exact numbers.

Turning to `COc1ccc(NC(C)=O)cc1N1C(=O)/C(=C\c2ccccc2)SC1c1cc(OC)c(OC)c(OC)c1` (stereo unspecified), the TGI in assay [1] is 49.2 µM; in assay [2] it was above 100 µM; in assay [3] it was above 100 µM; in [4], 48.3 µM; in [5], 41 µM; in assay [6], 71.4 µM. In addition, the TGI in [7] was above 100 µM; in assay [8] it was above 100 µM; in [9] it was 37 µM; in assay [10], above 100 µM; in assay [11] it was above 100 µM.

As to `CCOC(=O)C1(C/C=C/CCl)CCCC1=O` (stereo unspecified), the concentration for total growth inhibition (TGI) was 49.4 µM in [1]; 36.6 µM in assay [2]; above 100 µM in assay [3]; 36.2 µM in assay [4]; 37.2 µM in assay [5]; 38.2 µM in [6]. Besides, the TGI in assay [7] is above 100 µM; in assay [8], 50.6 µM; in [9], 33.9 µM; in assay [10] it was 42.1 µM; in assay [11], 39.7 µM.

With `COc1cc(/C=C2\N=C(c3ccccc3)N(c3ccc(C(=O)c4ccccc4)cc3N3C(=O)/C(=C/c4ccc(O)c(OC)c4)N=C3c3ccccc3)C2=O)ccc1O`, the TGI in assay [1] was found to be 61.2 µM; in [2] it was 57.2 µM; in assay [3], 15.3 µM; in assay [5], 89.5 µM; in [6], 32.5 µM; in assay [7], 26.7 µM. Moreover, the TGI was 72.6 µM in [8], 20.2 µM in assay [9], above 100 µM in [10] and 27.6 µM in assay [11].

With `CCN(CC)CC[n+]1ccc2c(C)c3[nH]c4ccc(O)cc4c3c(C)c2c1`, the TGI in assay [1] is above 40.7 µM; in assay [2], 16.5 µM; in assay [3], 11 µM and 12.4 µM; in assay [4], 6.64 µM and 3.58 µM; in assay [5], 79.6 µM and 102 µM; in [6] it was 44.6 µM and 13.3 µM. For the same compound, the TGI in [7] was 31.8 µM; in assay [8], 21.3 µM and 44.8 µM; in assay [9], 12.6 µM and 27.1 µM; in [10], 93.1 µM and 88.3 µM; in assay [11] it was > 96.1 µM and 150 µM. In addition, the 50% growth inhibitory concentration (GI50) in assay [3] was 0.181 µM; in assay [4], 0.631 µM; in [5], 21.7 µM; in [6], 1.23 µM; in assay [8] it was 9.07 µM; in assay [9] it was 4.5 µM. Moreover, in assay [11], the GI50 is 20.6 µM.

Regarding `Cc1[nH]c(=O)[nH]c(=O)c1/C=C/C(=O)NC(CO)CS(=O)CS(C)=O` (stereo unspecified), the TGI in assay [3] was 66.5 µM; in [4], 77.3 µM; in assay [5], 263 µM; in assay [6], 122 µM; in assay [8], 69.8 µM; in assay [9], 76.9 µM. For the same compound, the TGI in [10] was 409 µM; in assay [11], 130 µM.

As for `CC[C@@]1(O)C(=O)OCc2c1cc1n(c2=O)Cc2cc3ccccc3nc2-1`, the TGI in [2] was 0.191 µM; in [3], 0.0445 µM; in [4], 0.177 µM; in assay [5], 0.125 µM; in assay [6] it was 0.555 µM; in assay [7], above 100 µM. The total growth inhibition concentration (TGI) is 21.2 µM in assay [8], 0.181 µM in [9], 5.81 µM in assay [10] and 0.234 µM in assay [11]. Besides, the GI50 in [4] is 0.0202 µM; in assay [5] it was below 0.0143 µM; in assay [6] it was 0.0246 µM; in assay [8], 0.18 µM; in [10] it was 0.0246 µM.

As for `COC(=O)C1=C(C)N2CCSC2(C)C(C(=O)OC)C1c1cccc(Cl)c1` (stereo unspecified), the TGI in assay [2] was above 100 µM; in assay [3] it was 45.6 µM; in assay [4], 47.4 µM; in assay [6], above 100 µM; in assay [8], 46.9 µM; in assay [9] it was 29 µM. In addition, the TGI is above 100 µM in assay [10] and 38.3 µM in assay [11].

As for `CCOC(=O)CNC(=O)C(Cc1ccccc1)NC(=O)C(C)(C)NC(=O)OCc1ccccc1` (stereo unspecified) (Cbz-[Aib]-[ξF]-Gly-OEt), the TGI was above 100 µM in assay [2]; above 100 µM in assay [3]; above 100 µM in [5]; above 100 µM in assay [6]; above 100 µM in assay [7]; 33.2 µM in assay [8]. Moreover, the concentration for total growth inhibition (TGI) in assay [9], in [10] and in assay [11] was above 100 µM throughout.

As to `C[Si](C)(C)c1ccc(-c2c3ccc(-c4cc(Br)cc(Br)c4)nc3nc3nc(-c4cc(Br)cc(Br)c4)ccc23)cc1`, the TGI in assay [1], in [2], in [4], in assay [5], in [7] and in assay [8] was above 100 µM in each case. The TGI in assay [9] and in assay [11] was above 100 µM each time.

In the case of `O=C(NC(Cc1ccc(Br)cc1)C(=O)O)c1ccc(I)cc1` (stereo unspecified), the total growth inhibition concentration (TGI) in assay [3], in assay [4], in [5], in assay [6], in assay [8] and in assay [9] was above 100 µM throughout. Further, the total growth inhibition concentration (TGI) in assay [10] and in [11] was above 100 µM each time.

For `NC(=O)C1CCCN1C(=O)C(N)Cc1ccccc1` (stereo not drawn) (H-Phe-Pro-NH2; configuration not given here), the TGI in assay [2], in assay [3], in [5], in assay [6], in assay [7] and in assay [8] was above 100 µM in each case. The TGI in assay [9], in [10] and in assay [11] was above 100 µM throughout.

`COc1ccccc1CC(C)N` (stereo unspecified): the TGI in assay [1], in assay [2], in [4], in assay [6], in assay [8] and in assay [9] was above 100 µM throughout. The TGI in assay [10] and in assay [11] was above 100 µM in each case.

In the case of `Cc1cc2c(c(O)c1-c1c(C)cc(O)c3c1C(=O)C=CC3=O)C(=O)C=CC2=O`, the TGI stood at 1.44 µM in assay [2]; 0.375 µM in assay [3]; 73.5 µM in assay [4]; 13.8 µM in assay [5]; 19 µM in assay [7]; 14.5 µM in assay [9]. This compound showed a concentration for total growth inhibition (TGI) in assay [11] of 3.44 µM.

`CSc1nc(CO)c(CO)n1C`: the concentration for total growth inhibition (TGI) in assay [3], in assay [4], in assay [5], in [6], in assay [8] and in assay [9] was above 100 µM throughout. In addition, the TGI in assay [10] and in assay [11] was above 100 µM each time.

Consider `C[C@@H]1C(=O)O[C@H]1[C@H](O)CO`, for which the concentration for total growth inhibition (TGI) in assay [1], in assay [2], in assay [3], in assay [5], in [6] and in assay [7] was above 100 µM throughout. Further, the TGI in [8], in assay [9] and in assay [10] was above 100 µM in each case.

On to `Nc1ccc(O)c2c1C(=O)c1c(N)ccc(O)c1C2=O`, for which the TGI in assay [1], in [2], in [3], in assay [6], in assay [8] and in [9] was above 100 µM throughout. Besides, the TGI in [10] and in assay [11] was above 100 µM in each case.

As to `COc1ccc2[nH]c3c(c2c1)CC(=O)N1CCCC(CC3O)C1` (stereo unspecified), the TGI in [1], in assay [2], in [4], in assay [5], in [6] and in assay [7] was above 100 µM throughout. Moreover, the TGI in [8], in assay [9], in [10] and in [11] was above 100 µM each time.

Take `CCCCCCCCCCCCCC1=C(O)C(=O)C(CC2=C(O)C(=O)C(CCCCCCCCCCCCC)=C(O)C2=O)=C(O)C1=O`: the TGI in assay [1], in assay [2], in [4], in [6], in [7] and in assay [8] was above 100 µM throughout. The TGI in assay [9], in assay [10] and in assay [11] was above 100 µM throughout.

For `CCCCCCCCCCCCCCCCCCNc1ccn(C2OC(CO)C(OP(=O)(O)OCC(O)COP(=O)(O)OCC3OC(n4cc(F)c(NCCCCCCCCCCCCCCCCCC)nc4=O)CC3O)C2O)c(=O)n1` (stereo unspecified), the TGI in assay [1], in assay [2], in assay [4], in [5], in [6] and in assay [7] was above 50 µM throughout. In addition, the concentration for total growth inhibition (TGI) in assay [8], in assay [9], in assay [10] and in assay [11] was above 50 µM each time.

For `OC[C@H]1NC[C@@H](O)[C@@H](O)[C@H]1O`, the TGI in assay [3], in [4], in assay [5], in assay [6], in assay [7] and in assay [9] was above 100 µM in each case. For the same compound, the TGI in assay [10] and in [11] was above 100 µM in each case.

`CC1(CO)COS(=O)OC1` (stereo unspecified): the TGI in assay [2], in assay [3], in [4], in assay [5], in [6] and in assay [7] was above 100 µM each time. In addition, the TGI in [8], in assay [9], in [10] and in [11] was above 100 µM in each case.

As to `COc1ccc(-c2nc3c(nc2-c2ccc(OC)cc2)C(N)=NS(=O)(=O)N3)cc1`, the concentration for total growth inhibition (TGI) in [1], in assay [2], in assay [3], in assay [4], in assay [6] and in [8] was above 100 µM each time. For the same compound, the total growth inhibition concentration (TGI) in assay [9], in assay [10] and in assay [11] was above 100 µM in each case.

Turning to `Nc1[nH]c(=S)nc2nc3c(c(-c4ccccc4)c12)CCCC3`, the TGI in assay [2], in [3], in assay [5], in assay [6], in assay [7] and in assay [9] was above 100 µM each time. For the same compound, the TGI in [10] and in assay [11] was above 100 µM throughout.

Regarding `CC(C)CCCC(C)[C@H]1CC[C@H]2n3c(nc4ccccc43)CCC[C@]12C` (stereo partly specified), the TGI is 37.3 µM in [1]; 35.9 µM in assay [3]; 33.5 µM in assay [4]; 33.8 µM in assay [5]; 37.2 µM in assay [6]; 42.9 µM in assay [7]. Further, the TGI in assay [8] turned out to be 34.3 µM; in [9], 32.8 µM; in assay [10], 47.3 µM; in assay [11], 28.6 µM.

For `O=C(NCCC1CN(C(=O)OCc2ccccc2)c2ccccc21)OCc1ccccc1` (stereo unspecified), the TGI in assay [1], in assay [2], in assay [3], in assay [5], in assay [6] and in assay [7] was above 100 µM throughout. In addition, the TGI in assay [8], in assay [9], in [10] and in assay [11] was above 100 µM each time.

For the compound `CCc1n[nH]c(=O)n1/N=C(\C)c1ccc([N+](=O)[O-])cc1`, the TGI in [1], in assay [3], in assay [4], in assay [5], in assay [6] and in [7] was above 100 µM in each case. Moreover, the total growth inhibition concentration (TGI) in [8], in assay [9], in assay [10] and in assay [11] was above 100 µM in each case.

As for `CN(C)CCNC(=O)c1cc(Cl)cc2cc3ccccc3nc12`, the total growth inhibition concentration (TGI) in assay [4] was found to be 3.89 µM; in [5], 5.82 µM; in [6], 6.18 µM; in [8], 3.76 µM; in assay [9] it was 2.6 µM; in [10] it was 7.02 µM. The TGI in assay [11] worked out at 4.12 µM.
